The source of these data is patent US20250129331A1, “MEDIUM COMPOSITION FOR CULTURE OF EXTRAEMBRYONIC ENDODERM STEM CELLS” (SEOUL NATIONAL UNIVERSITY R&DB FOUNDATION, priority 2023, published 2025).

Entries after “also recorded” stand apart in the source; their conditions may differ.

Common to all, as to type: cell-based, pig
The subject of test [1] is porcine XEN cells. As to the kind of experiment: Withdrawal of signaling molecules or supplements from porcine XEN cell medium (morphology, AP staining, GATA6 ICC). The conditions noted are these: for colony morphology / proliferation on withdrawal of the factor: factor withdrawn from medium with B27, CHIR, FGF2, LIF, Act A, FIG. 3a; for AP staining and GATA6 expression on withdrawal of the factor: factor withdrawn, FIG. 3b, 3c. As to the method:
Before staining, all cell samples were pre-cultured at 4° C. for 10 minutes and fixed with 4% paraformaldehyde for 15 minutes. After washing with Dulbecco's Phosphate Buffered Saline (DPBS) (Welgene), the fixed cells were stained with a buffer solution containing nitro blue tetrazolium chloride and 5-bromo-4-chloro-3-indolyl phosphate toluidine salt stock solution (Roche; Basel, Switzerland) at room temperature for 30 minutes. Stained cells were observed under an inverted microscope.
For immunostaining, the cells were fixed in 4% (w/v) paraformaldehyde. After washing with Dulbecco's Phosphate Buffered Saline (DPBS), the fixed cells were treated with 0.2% Triton-X100 (Sigma-Aldrich) at 4° C. for 2 hours. The cells were then treated with Dulbecco's Phosphate Buffered Saline (DPBS) containing 10% (v/v) goat or donkey serum for 1 hour to prevent non-specific binding. Serum-treated cells were cultured with primary antibodies at 4° C. for 24 hours. The primary antibodies used were as follows: rabbit anti-SOX2 (1:200, Millipore; AB5603), rabbit anti-NANOG (1:200, PeproTech; Rocky Hill, NJ, USA; 500-P236), chicken anti-OCT4 (1:100, Abcam; Cambridge, UK; ab134218), goose anti-GATA6 (15 μg/mL; R&D systems; AF1700), goose anti-SOX17 (1:200, R&D systems; AF1924), and rabbit anti-GATA4 (1:200, Abcam; ab84593). After incubation with primary antibodies, the cells were treated with Alexa Fluor-conjugated secondary antibodies at 4° C. for 24 hours. Nuclei were stained with Hoechst 33342 (Molecular Probes; Eugene, OR, USA). Images of stained cells were taken using a TE2000-U inverted fluorescence microscope (Nikon; Tokyo, Japan).
FIGS. 3a, 3b and 3c show changes in the withdrawal of signaling molecules or supplements for XEN cells.
In order to optimize the culture system of porcine XEN cells, B27 supplement, CHIR, FGF2, LIF or Act A was withdrawn from the medium during maintenance, and essential growth factors and signaling molecules were identified. Colonies were morphologically analyzed (FIG. 3a). […] In order to verify the responsiveness to these factors, AP staining and ICC for GATA6, which is a representative XEN cell marker, were performed to support the morphological analysis results (FIGS. 3b and 3c).

The subject of test [2] is porcine XEN cells. As to the kind of experiment: Culture of porcine XEN cells under various concentrations of essential factors (colony number, qPCR). As to conditions: for concentration range appropriate for XEN cell culture: 7 days, colony number and qPCR of GATA6, SALL4, SPARC. As to the method:
Total RNA was extracted using TRIzol reagent (Invitrogen; Carlsbad, USA) and cDNA was synthesized using High-Capacity RNA-to-cDNA Kit (Applied Biosystems; Waltham, MA, USA). cDNA was amplified using the primer sets listed in Table 1 below and PowerSYBR® Green PCR Master Mix (Applied Biosystems).
In addition, in order to fine-tune the culture system, porcine XEN cells were cultured under various concentrations of essential factors including FGF2, LIF and CHIR99021.
For orientation: In qPCR the cycle at which signal appears reflects the starting amount.

Test [3] has as its system porcine XEN cells. The test can be described thus: Screening of serum-free culture conditions (signaling molecules, KSR, B27) for porcine XEN cells. The conditions noted are these: FIG. 2a. As to the method:
Porcine XEN cells were cultured under various conditions. Each of six fetal bovine serum (FBS) (three different batches purchased from Hyclone, Biowest, TCB and Genedepot) was applied to maintain porcine XEN cells. In addition, several signaling molecules and supplements were added to the basal medium supplemented with 15% (v/v), 10% (v/v) or 5% (v/v) knockout serum replacement (KSR) (Gibco; Gaithersburg, MD, USA) and tested. Factors tested were fibroblast growth factor 2 (FGF2) (R&D Systems; Minneapolis, MN, USA), human recombinant leukemia inhibitory factor (hrLIF) (Millipore; MA, USA), 5 ng/ml activin A (Activin A; R&D Systems), CHIR99021 (Cayman chemical; Ann Arbor, MI, USA), which is a GSK-3B inhibitor, and 1×B27 supplement (Gibco). The basal medium was a DMEM/F12 based medium, which consisted of 1× Glutamax, 0.1 mM β-mercaptoethanol and 1× antibiotic-antimycotic (all of which are manufactured by Gibco). The medium was changed every 24 hours and cultured under conditions of 5% CO2, 5% O2 and 38° C.
The present inventors performed screening of various factors in a DMEM/F12-based KSR-containing medium, which is commonly used for a serum-free medium in stem cells.

`Cc1c[nH]c(-c2cnc(NCCNc3ccc(C#N)cn3)nc2-c2ccc(Cl)cc2Cl)n1` [CHIR99021, reference compound]: in the test with porcine XEN cells [1], the “colony morphology / proliferation on withdrawal of the factor” value (“colony morphology / proliferation” below) was “colony boundaries collapsed and cell density within colonies decreased”; the “AP staining and GATA6 expression on withdrawal of the factor” value (“AP staining and GATA6 expression” for short) is recorded as “detected locally”. Also, in the test on porcine XEN cells [2], the “concentration range appropriate for XEN cell culture” value (“concentration range appropriate” below) fell in the range of 0.5 to 4.5 µM.
In the case of “FGF2: fibroblast growth factor 2 (FGF2) (R&D Systems)”, the doubling time entry with porcine XEN cells [3] (DMEM/F12-based KSR-containing medium, factor alone) is recorded as “prolonged”. For the same molecule, in the test with porcine XEN cells [3] (DMEM/F12-based KSR-containing serum-free medium, 2b), the “proliferation / growth of XEN cells” value is “insufficient to proliferate XEN cells”. In addition, in the test on porcine XEN cells [1], the “colony morphology / proliferation” value is given as “no colonies after 4 days”; the “AP staining and GATA6 expression” value is listed as “detected locally”. Also, the “concentration range appropriate” value in the test with porcine XEN cells [2] was in the range of 10 to 100 ng/mL. Besides, the “number of XEN colonies” value in the test with porcine XEN cells [2] (low concentration of the factor, FIG. 4a, 4b) was “few colonies were detected”.
For the molecule “LIF: human recombinant leukemia inhibitory factor (hrLIF) (Millipore)”, in the test on porcine XEN cells [1], the “colony morphology / proliferation” value is reported as “cell proliferation was inhibited”; the “AP staining and GATA6 expression” value is given as “detected locally; also recorded: intense GATA6 expression only in the colony center”. Also, the “concentration range appropriate” value in the test on porcine XEN cells [2] was 0.1 to 20 ng/mL.

B1: Act A: activin A (R&D Systems) (protein, UniProt P08476 311-426, looked up)
Inhibin beta A chain: GLECDGKVNICCKKQFFVSFKDIGWNDWIIAPSGYHANYCEGECPSHIAGTSGSSLSFHSTVINHYRMRGHSPFANLKSCCVPTKLRPMSMLYYDDGQNIIKKDIQNMIVEECGCS
modifications: Inhibin beta A chain
Take B1: in the test on porcine XEN cells [1], the “AP staining and GATA6 expression” value was “evenly positive”. For the same molecule, in the test with porcine XEN cells [1] (high concentration, control versus Act A withdrawn), the “self-renewal of porcine XEN cells” value is reported as “inhibits the self-renewal”.
